target: baNadD (Bacillus anthracis, UniProt C3L5T6); assay: biochemical; format: biochemical
Sequence (C3L5T6 whole entry, looked up): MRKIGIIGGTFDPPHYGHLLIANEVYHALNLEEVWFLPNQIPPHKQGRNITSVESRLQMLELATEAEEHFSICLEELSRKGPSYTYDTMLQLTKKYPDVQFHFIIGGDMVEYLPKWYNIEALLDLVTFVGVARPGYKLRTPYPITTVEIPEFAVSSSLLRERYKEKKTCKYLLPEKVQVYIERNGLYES

| Structure (SMILES) | […]. anthracis [%] |
| --- | --- |
| NS(=O)(=O)c1ccc(NC(=S)NCc2ccccc2)cc1 [compound 085] | 0 |
| O=C(Nc1ccc(O)cc1)c1ccc(Cl)c(Cl)c1 [compound 086] | 0 |
| O=C(O)CCNc1ccc(Br)cc1C(=O)O [compound 087] | 0 |
| Cc1nnc(SCC(=O)Nc2ccc(Cl)cn2)s1 [compound 088] | 0 |
| O=C(O)CC(NC(=O)c1ccccc1NC(=O)c1ccco1)C(=O)O (stereo not shown) [compound 089] | 37 |
| COc1cc(OC)cc(-c2cn[nH]c2N)c1 [compound 090] | 0 |
| Cn1ccc(NC(=O)Nc2ccc(Cl)cc2Cl)n1 [compound 091] | 0 |
| Cc1ccc(S(=O)(=O)/N=C/c2cccnc2)cc1 [compound 092] | 0 |
| CCS(=O)(=O)CCSc1nc2ccccc2o1 [compound 094] | 0 |
| NS(=O)(=O)c1ccc(CCNC(=S)Nc2ccc(S(N)(=O)=O)cc2)cc1 [compound 095] | 0 |
| NC(=O)c1ccc(NC(=O)COc2ccc3ccccc3c2)cc1 [compound 097] | 63 |
| COc1cccc(C=C2C(=O)NC(=O)NC2=O)c1OCC(=O)O [compound 098] | 13 |
| Cc1cc(OCC(=O)Nc2ccc(S(N)(=O)=O)cc2)ccc1Cl [compound 099] | 2 |
| O=C(CSc1nnc(-c2ccncc2)[nH]1)Nc1ccccc1Cl [compound 100] | 0 |
| NS(=O)(=O)c1ccc(CCNC(=O)COc2ccc(Cl)cc2Cl)cc1 [compound 101] | 0 |
| Cc1nc(N)nc(O)c1Oc1ccccc1 [compound 102] | 6 |
| COc1ccc(NS(=O)(=O)c2ccc(SC)cc2)cc1 [compound 103] | 0 |
| Nc1nnc(SCc2ccccc2Cl)s1 [compound 104] | 29 |
| Cc1ccc(NC(=S)NC(=O)c2ccc(F)cc2)nc1 [compound 105] | 51 |

| Structure (SMILES) | […]. anthracis [%] |
| --- | --- |
| CCOC(=O)c1cc(-c2ccc(C)cc2)[nH]n1 [compound 106] | 0 |
| O=C(O)c1cc(Cl)c(Cl)cc1C(=O)Nc1ccc(O)cc1 [compound 107] | 0 |
| Cn1nnnc1SCC(=O)Nc1ccc(Br)cc1Cl [compound 108] | 0 |
| CCCn1cc(C(CC(=O)O)C(=O)O)c2ccccc21 (stereo not shown) [compound 110] | 0 |
| O=c1/c(=C/c2ccc(O)cc2)sc2nc3cc(Br)cnc3n12 [compound 111] | 6 |
| O=C(Nc1ncnc2[nH]cnc12)c1ccccc1 [compound 112] | 0 |
| Br.Cn1ccnc1SCC(=O)c1ccccc1 [compound 113] | 12 |
| CCCCN(C(C)=O)c1ccc(C(=O)O)cc1 [compound 114] | 0 |
| O=C(O)CN(c1ccccc1)S(=O)(=O)c1ccccc1[N+](=O)[O-] [compound 115] | 0 |
| O=C(O)c1nonc1NCn1cnnn1 [compound 116] | 5 |
| O=C(O)Cn1cc(Cl)c([N+](=O)[O-])n1 [compound 117] | 14 |
| NS(=O)(=O)c1ccc(/N=C/c2ccc(Cl)cc2Cl)cc1 [compound 118] | 0 |
| O=C(O)c1cc(/N=C/c2ccc3c(c2)OCO3)ccc1O [compound 119] | 0 |
| Cc1cccc(C(=O)NNC(=O)/C=C\C(=O)O)c1 [compound 120] | 0 |
| CCSc1ccccc1C(=O)Nc1ccc(S(N)(=O)=O)cc1 [compound 121] | 0 |
| Cc1ccc(C(=O)Nc2nc3ccc(Br)cc3s2)o1 [compound 123] | 0 |
| O=C(NCc1ccccc1)Nc1ccc2nsnc2c1 [compound 124] | 0 |
| CC(=O)Nc1ccc(OCC(=O)Nc2ccccc2)cc1 [compound 125] | 0 |
| CCOc1ccc(S(=O)(=O)Nc2cccnc2)cc1 [compound 126] | 22 |

target: ecNadD (Escherichia coli (strain K12), UniProt P0A752); assay: biochemical; format: biochemical

| Structure (SMILES) | […]. coli [%] |
| --- | --- |
| NS(=O)(=O)c1ccc(NC(=S)NCc2ccccc2)cc1 [compound 085] | 11 |
| O=C(Nc1ccc(O)cc1)c1ccc(Cl)c(Cl)c1 [compound 086] | 11 |
| O=C(O)CCNc1ccc(Br)cc1C(=O)O [compound 087] | 11 |
| Cc1nnc(SCC(=O)Nc2ccc(Cl)cn2)s1 [compound 088] | 11 |
| O=C(O)CC(NC(=O)c1ccccc1NC(=O)c1ccco1)C(=O)O (stereo not shown) [compound 089] | 10 |
| COc1cc(OC)cc(-c2cn[nH]c2N)c1 [compound 090] | 10 |
| Cn1ccc(NC(=O)Nc2ccc(Cl)cc2Cl)n1 [compound 091] | 10 |
| Cc1ccc(S(=O)(=O)/N=C/c2cccnc2)cc1 [compound 092] | 10 |
| CCS(=O)(=O)CCSc1nc2ccccc2o1 [compound 094] | 10 |
| NS(=O)(=O)c1ccc(CCNC(=S)Nc2ccc(S(N)(=O)=O)cc2)cc1 [compound 095] | 10 |
| NC(=O)c1ccc(NC(=O)COc2ccc3ccccc3c2)cc1 [compound 097] | 10 |
| COc1cccc(C=C2C(=O)NC(=O)NC2=O)c1OCC(=O)O [compound 098] | 10 |
| Cc1cc(OCC(=O)Nc2ccc(S(N)(=O)=O)cc2)ccc1Cl [compound 099] | 10 |
| O=C(CSc1nnc(-c2ccncc2)[nH]1)Nc1ccccc1Cl [compound 100] | 9 |
| NS(=O)(=O)c1ccc(CCNC(=O)COc2ccc(Cl)cc2Cl)cc1 [compound 101] | 9 |
| Cc1nc(N)nc(O)c1Oc1ccccc1 [compound 102] | 9 |
| COc1ccc(NS(=O)(=O)c2ccc(SC)cc2)cc1 [compound 103] | 9 |
| Nc1nnc(SCc2ccccc2Cl)s1 [compound 104] | 9 |
| Cc1ccc(NC(=S)NC(=O)c2ccc(F)cc2)nc1 [compound 105] | 9 |

| Structure (SMILES) | […]. coli [%] |
| --- | --- |
| CCOC(=O)c1cc(-c2ccc(C)cc2)[nH]n1 [compound 106] | 9 |
| O=C(O)c1cc(Cl)c(Cl)cc1C(=O)Nc1ccc(O)cc1 [compound 107] | 9 |
| Cn1nnnc1SCC(=O)Nc1ccc(Br)cc1Cl [compound 108] | 9 |
| CCCn1cc(C(CC(=O)O)C(=O)O)c2ccccc21 (stereo not shown) [compound 110] | 9 |
| O=c1/c(=C/c2ccc(O)cc2)sc2nc3cc(Br)cnc3n12 [compound 111] | 9 |
| O=C(Nc1ncnc2[nH]cnc12)c1ccccc1 [compound 112] | 8 |
| Br.Cn1ccnc1SCC(=O)c1ccccc1 [compound 113] | 8 |
| CCCCN(C(C)=O)c1ccc(C(=O)O)cc1 [compound 114] | 8 |
| O=C(O)CN(c1ccccc1)S(=O)(=O)c1ccccc1[N+](=O)[O-] [compound 115] | 8 |
| O=C(O)c1nonc1NCn1cnnn1 [compound 116] | 8 |
| O=C(O)Cn1cc(Cl)c([N+](=O)[O-])n1 [compound 117] | 8 |
| NS(=O)(=O)c1ccc(/N=C/c2ccc(Cl)cc2Cl)cc1 [compound 118] | 8 |
| O=C(O)c1cc(/N=C/c2ccc3c(c2)OCO3)ccc1O [compound 119] | 8 |
| Cc1cccc(C(=O)NNC(=O)/C=C\C(=O)O)c1 [compound 120] | 8 |
| CCSc1ccccc1C(=O)Nc1ccc(S(N)(=O)=O)cc1 [compound 121] | 8 |
| Cc1ccc(C(=O)Nc2nc3ccc(Br)cc3s2)o1 [compound 123] | 7 |
| O=C(NCc1ccccc1)Nc1ccc2nsnc2c1 [compound 124] | 7 |
| CC(=O)Nc1ccc(OCC(=O)Nc2ccccc2)cc1 [compound 125] | 7 |
| CCOc1ccc(S(=O)(=O)Nc2cccnc2)cc1 [compound 126] | 7 |
